Experimental findings from paper PMC1716192, “A Plant-Derived Morphinan as a Novel Lead Compound Active against Malaria Liver Stages” (PLoS Medicine, 2006) are described below.

The structures appear in SMILES notation.

A word on the IC50: it is the concentration at which inhibition is half-maximal. One may read the IC90 as the point of the concentration-response curve where the effect stands at 90%. A higher IC90 goes with weaker potency. Usually IC80 stands for the concentration at which the effect reaches the 80% level.

For data set [1], the system named is P. falciparum (NF 54 strain) hepatic stages. As to the kind of experiment: In vitro assay for P. falciparum liver stage inhibition in primary human hepatocytes. The class given is cell-based. The following applies: for IC50 / IC90: 120 h. On the procedure:
P. yoelii (265 BY strain) and P. falciparum (NF 54 strain) sporozoites were obtained by dissection of infected Anopheles stephensi salivary glands. Primary mouse hepatocytes were isolated as previously described and seeded in eight-well Lab-Tek plastic chamber slides (VWR, Fontenay-sous-Bois, France) previously coated with rat-tail collagen I (BD Biosciences, Le Pont de Claix, France) at a density of 10^5 cells per well. Mouse hepatocytes were cultured at 37 °C in 5% CO2 in William's E medium supplemented with 10% fetal calf serum, 1% L-glutamine, 1% sodium pyruvate, 1% insulin-transferrin-selenium, 1% nonessential amino acids, and 1% penicillin-streptomycin (all from Invitrogen, Cergy-Pontoise, France), for 24 h before inoculation of P. yoelii sporozoites (10^5 per well). Human liver fragments were collected following informed consent provided from patients undergoing a partial hepatectomy. The collection and use of these tissues were undertaken in accordance with French Government ethical regulations. Primary human hepatocytes were isolated from the healthy parts of these liver biopsies as previously described. Human hepatocytes were seeded in LabTek plastic chamber slides coated with collagen, at a density of 1.8 × 10^5 cells per well and cultured at 37 °C in 5% CO2 in the same medium as above, supplemented with 10^−7 M dexamethasone (Sigma) and 2% DMSO after complete cell adherence (12–24 h), for at least 48 h before inoculation of P. falciparum sporozoites (10^5 per well). For a standard assay, the plant extract, the purified compound, or primaquine was solubilized in DMSO, further diluted in culture medium (equal DMSO concentrations of <0.3% per well), and then added to hepatocyte cultures at the time of sporozoite inoculation. Three hours later, after sporozoite penetration into hepatocytes, cultures were washed and further incubated in the presence of the drug. Culture medium containing the appropriate drug concentration was changed daily until 48 h for P. yoelii, or until 5 d for P. falciparum. Parasites were quantified on the last day of incubation. For the in vitro timing experiments, tazopsine treatment of P. yoelii and P. falciparum cultures was undertaken for different periods during the cultivation: 0 h to 3 h, 3 h to 24 h, or 24 h to 48 h after P. yoelii sporozoite inoculation (quantification at 48 h), or 0 h to 2 d, or 3 d to 5 d after P. falciparum sporozoite inoculation (quantification at 5 d). […] Cells were stained with Evans Blue (0.4%), and parasites and cells nuclei were stained with 1 μg/ml of diamidino-phenylindole (DAPI; Sigma). Parasite numbers were counted under a fluorescence microscope with a 25× light microscope objective. IC50 values, the drug concentration at which a 50% reduction in the number of parasites was observed, as compared to the number in the DMSO control cultures, were derived from two independent experiments in which each concentration was tested in triplicate wells.
(§1) IC50 and TC50 were calculated by nonlinear regression using four-parameter logistic curves on the SigmaPlot 10.0 software (http://www.systat.com). Each IC50 or TC50 is expressed as a mean between two independent experiments, followed by the standard error of the mean.

Data set [2] deals with primary mouse hepatocytes. As to the kind of experiment: In vitro assay for cell viability (neutral red), mouse hepatocytes. The class given is cell-based. As to conditions: 48 h drug exposure. On the procedure: Primary hepatocytes of mice or humans were prepared as above and seeded in 96-well plates coated with collagen, at a density of 5 × 10^4 and 7 × 10^4 cells per well, respectively. Drugs were added to the culture medium, which was changed daily after 24 h or 48 h of incubation for mouse and human hepatocytes, respectively. After 48 h of drug exposure (mouse hepatocytes) or 5 d (human hepatocytes), 50 μl of neutral red (Sigma) at 0.02% in phosphate-buffered saline (PBS) were added per well and incubated for 24 additional hours. Cultures were then washed with PBS and the neutral red extracted with 1% SDS from viable cells and quantified by measuring the OD540 on a microplate autoreader photometer (BioTek Instruments, Winooski, Vermont, United States).
as §1

Data set [3] relates to P. yoelii blood stages. The data set is described as follows: In vivo assay: P. yoelii blood stages in mice. On the procedure: (§2) In order to test for inhibitory activity against P. yoelii blood stages, four groups of five naive mice were inoculated (intraperitoneally) with 10^6 P. yoelii–infected red blood cells on day 0. Three hours later, one group was treated with tazopsine at 100 mg/kg, another with NCP-tazopsine at 200 mg/kg, whereas the other two groups acted as controls (respectively, water and 10% Tween 80). The doses were repeated daily until day +3. For the group treated with NCP- tazopsine and its control group, the animals were anesthetised 2 h following the administration of the last dose (day +3), and placed for 30 min over a cage with 100 female laboratory-bred A. stephensi. Oocysts were enumerated in 30 mosquito midguts dissected 8 d later, and the number of sporozoites in the salivary glands dissected from 30 insects was ascertained a further 7 d later. All the experiments were performed in two independent duplicates, and enumeration of parasites in blood smears and mosquitoes was conducted in a blinded fashion.

For data set [4], the system named is P. yoelii transmissibility (oocysts, sporozoites in A. stephensi). As to the kind of experiment: Transmissibility to A. stephensi mosquitoes fed on treated mice. The following applies: 200 mg/kg, A. stephensi fed on treated mice (unpublished data). The data set is classed as in vivo. On the procedure: as §2
Setting [5] is: Plasmodium falciparum, Hepatocyte.

As for `COC1=C2[C@@H]3[C@H](O)c4ccc(OC)c(O)c4[C@]2(CCN3C2CCCC2)C[C@H](O)[C@@H]1O` [NCP-tazopsine, N-cyclopentyl-tazopsine], in data set [1] (setting [5]), the IC50 was 42.4 µM and the IC90 came to 95.4 ± 6.6 µM. This compound also displayed a TC50 in data set [2] of 150.5 ± 9.5 µM. For the same compound, in data set [3] (fully protective dose (200 mg/kg), mice inoculated with P. yoelii-infected blood (unpublished data)), the “effect on blood stage parasite multiplication” value was “no effect”. Besides, in data set [4], the “effect on the transmissibility of the parasite” value is listed as “no effect”.
For the compound `COC1=C2[C@H]3NCC[C@]2(C[C@H](O)[C@@H]1O)c1c(ccc(OC)c1O)[C@H]3O` [Tazopsine, tazopsine], the “phase of hepatic development most susceptible to inhibition” value in data set [1] (P. falciparum, exposure 0 h-2 d or 3 d-5 d) is on record as “most susceptible to inhibition during the early stage of trophozoite development”. In addition, the “concentration at which parasite development fully inhibited” value in data set [1] (P. falciparum-infected primary human hepatocyte cultures) is not below 28 µM. Further, in data set [1] (setting [5]), it took 10 µM to reach the 80% level (IC80), the IC50 amounted to 4.2 ± 0.1 µM and it took 18.3 ± 2.8 µM to reach the 90% level (IC90). Moreover, the “size of surviving hepatic parasites versus control cultures” value in data set [1] (suboptimal inhibitory concentrations, 5 d) is recorded as “significantly smaller”. The compound further showed a TC50 in data set [2] of 43.7 ± 1.6 µM. The “inhibition of the erythrocytic multiplication cycle” value in data set [3] (100 mg/kg daily, mice challenged with P. yoelii-infected blood (unpublished data)) is recorded as “No significant inhibition”.
